This is an account of results in patent publication US12404261B2, “Compounds and compositions for treating conditions associated with cGAS” (Novartis AG, priority 2020, dated 2025).

human truncated cGAS enzyme (147-522 human cGAS), sequence (Q8N884 147-522): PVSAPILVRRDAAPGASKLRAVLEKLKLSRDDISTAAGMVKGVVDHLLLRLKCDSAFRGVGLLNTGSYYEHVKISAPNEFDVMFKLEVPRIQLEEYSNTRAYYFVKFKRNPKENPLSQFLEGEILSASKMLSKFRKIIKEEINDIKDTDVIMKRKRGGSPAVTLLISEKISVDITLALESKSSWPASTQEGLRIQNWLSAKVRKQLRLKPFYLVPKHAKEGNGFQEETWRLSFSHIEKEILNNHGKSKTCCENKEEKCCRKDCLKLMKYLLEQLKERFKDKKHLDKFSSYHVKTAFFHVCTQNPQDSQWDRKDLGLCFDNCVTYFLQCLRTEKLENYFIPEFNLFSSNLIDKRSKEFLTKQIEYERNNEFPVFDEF

This test has as its target human truncated cGAS enzyme (147-522 human cGAS) (Homo sapiens (Human), UniProt Q8N884). The test is described as follows: Quantification of cGAS protein inhibition (cGAMP formation measured by LC-MS/MS). It counts as biochemical. Conditions: reported for the potential mixture of co-existing tautomers and/or racemates. The protocol: A reagent buffer was prepared in filtered and autoclaved water according to the following: • 50 mM Tris-buffer pH 7.5 (1 M Tris-buffer pH 7.5, Invitrogen, Cat. No. 15567-027); • 50 mM NaCl (5 M NaCl, Sodium Chloride Solution, Sigma, 59222C-); • 5 mM MgCl2 (1 M MgCl2, Sigma, M1028); • 0.1 mM ZnCl2 (Zinc Chloride [7646-85-7], powder, Cell Culture Tested, Sigma, Z-0152); and • 0.001% Tween 20 (TWEEN 20, Sigma Aldrich, P1379-).
A buffer for the cGAS enzyme was prepared in filtered and autoclaved water according to the following: • 50 mM Tris-buffer pH 7.5; • 5 mM MgCl2; and • 0.001% Tween 20.
Compounds were dispensed to a […]. The human truncated cGAS enzyme (4.2 mg/mL 147-522 human cGAS, MW 43,909 g/mol) was stored in 50 mM Tris, 500 mM NaCl, 5% (v/v) glycerol at pH 8 and diluted in the cGAS buffer enzyme shortly before use. The enzyme solution was transferred into the reagent buffer to give a final concentration of 30 nM. The reaction was started by mixing the enzyme with ISD (a 45 bp double stranded DNA, MW 27,670 g/mol, 5 mM), GTP and ATP to a final concentration of 5 μM, 0.5 mM and 0.5 mM respectively in a final volume of 10 μl. The reaction plates were then centrifuged at 1000 rpm for 1 minute and incubated at room temperature for 1 h. After 1 h of incubation, [^5Ns]-2′3′-cGAMP to a final concentration of 200 nM and 30 μL of 100% acetonitrile/0.175% of TFA were added to the reaction mixture. The plates were centrifuged at 1000 rpm for 1 minute before being sealed for 3 seconds at 170° C. using a ThermoScientific sealer (ALPS™ 50V) and an aluminum sealing cover (Pierce Seal, 4titude, Product Code: 4TI-0531).
The concentration of cGAMP was measured on a LC-MS/MS system consisting of a THERMO Dionex Ultimate LC system with a high pressure pump, an autosampler, a column heating compartment (Reinach, Switzerland) and a SCIEX Triple Quad 5500 (Framingham, MA, USA) mass spectrometer for detection. The sample plates were centrifuged for 10 minutes at 2000 rpm. Up to three plates were placed in the autosampler for injection. An aliquot of 10 μL of each sample was injected on an XBridge BEH Amide 3.5 μm, 2.1×50 mm column (P/N 186004859) with an XBridge BEH Amide 5 μm 2.1×5 mm VanGuard Cartridge (P/N 186007760) pre-column (both WATERS, MA, USA) held at 40° C. An isocratic flow of 1.0 mL/min solvent (60% ACN, 8 mM ammonium acetate, 5 mM ammonium hydroxide, 0.04% acetic acid) was applied and sprayed into the ion source of the mass spectrometers. The MS parameters were optimized based on the properties of the compounds to be detected and run in positive multi-reaction mode (MRM) based on the mass transitions. LC and MS parameters were also optimized to allow for a sample-to-sample measuring time of approximately 75 sec and a run time of 8 hours per 384-well plate. All data were analyzed with Excel; and the dose response curves were generated using the auto fitting function of XLfit. The IC50 was determined by plotting the cGAMP concentration ratio (cGAMP divided by the internal standard [^15Ns]-2′3′-cGAMP) versus the concentration of compound.
With `COCCn1c(-c2nnc(C(F)(F)F)[nH]2)c(-c2cn[nH]c2)c2cc(OC)c(Cl)cc21` [Example 26, 6-chloro-5-methoxy-1-(2-methoxyethyl)-3-(1H-pyrazol-4-yl)-2-(5-(trifluoromethyl)-4H-1,2,4-triazol-3-yl)-1H-indole], the IC50 was 1810 nM.

Turning to `CCOC(=O)c1nnc(-c2[nH]c3cc(Cl)c(OC)cc3c2-c2cn[nH]c2)[nH]1` [Example 28, ethyl 5-(6-chloro-5-methoxy-3-(1H-pyrazol-4-yl)-1H-indol-2-yl)-4H-1,2,4-triazole-3-carboxylate], the concentration for half-maximal inhibition (IC50) came out at 75 nM.

On to `COC(=O)Cc1nnc(-c2[nH]c3c(Cl)c(Cl)ccc3c2-c2cn[nH]c2)[nH]1` [Example 29, methyl 2-(5-(6,7-dichloro-3-(1H-pyrazol-4-yl)-1H-indol-2-yl)-4H-1,2,4-triazol-3-yl)acetate], for which the half-maximal inhibitory concentration (IC50) was found to be 218 nM.

As to `COc1cc2c(-c3cn[nH]c3)c(-c3nnc(C(N)=O)[nH]3)[nH]c2cc1Cl` [Example 31, 5-(6-chloro-5-methoxy-3-(1H-pyrazol-4-yl)-1H-indol-2-yl)-4H-1,2,4-triazole-3-carboxamide], the IC50 was 49 nM.

Consider `FC(F)(F)c1nnc(-c2cc3c(Cl)c(Cl)ccc3n2-c2cn[nH]c2)[nH]1` [Example 32, 4,5-dichloro-1-(1H-pyrazol-4-yl)-2-(5-(trifluoromethyl)-4H-1,2,4-triazol-3-yl)-1H-indole], for which the IC50 is 496 nM.

As to `Oc1cc2c(-c3cn[nH]c3)c(-c3nnc(C(F)(F)F)[nH]3)[nH]c2cc1Cl` [Example 33, 6-Chloro-3-(1H-pyrazol-4-yl)-2-(5-(trifluoromethyl)-4H-1,2,4-triazol-3-yl)-1H-indol-5-ol], the half-maximal inhibitory concentration (IC50) stood at 38 nM.

As for `Oc1c(Cl)ccc2c(-c3cn[nH]c3)c(-c3nnc(C(F)(F)F)[nH]3)[nH]c12` [Example 34, 6-chloro-3-(1H-pyrazol-4-yl)-2-(5-(trifluoromethyl)-4H-1,2,4-triazol-3-yl)-1H-indol-7-ol], the IC50 came out at 954 nM.

Take `N#Cc1nnc(-c2[nH]c3c(Cl)c(Cl)ccc3c2-c2cn[nH]c2)[nH]1` [Example 35, 5-(6,7-Dichloro-3-(1H-pyrazol-4-yl)-1H-indol-2-yl)-4H-1,2,4-triazole-3-carbonitrile]: the IC50 worked out at 77 nM.

With `OCc1nnc(-c2[nH]c3c(Cl)c(Cl)ccc3c2-c2cn[nH]c2)[nH]1` [Example 36, (5-(6,7-Dichloro-3-(1H-pyrazol-4-yl)-1H-indol-2-yl)-4H-1,2,4-triazol-3-yl)methanol], the IC50 is 342 nM.

Regarding `OCCn1cnc(-c2[nH]c3c(Cl)c(Cl)ccc3c2-c2cn[nH]c2)n1` [Example 37, 2-(3-(6,7-dichloro-3-(1H-pyrazol-4-yl)-1H-indol-2-yl)-1H-1,2,4-triazol-1-yl)ethan-1-ol], the half-maximal inhibitory concentration (IC50) amounted to 137 nM.

As to `Clc1ccc2c(-c3cn[nH]c3)c(-c3nnc[nH]3)[nH]c2c1Cl` [Example 38, 6,7-dichloro-3-(1H-pyrazol-4-yl)-2-(4H-1,2,4-triazol-3-yl)-1H-indole], the IC50 was 136 nM.

With `COc1cc2c(-n3ccnc3)c(-c3nnc(C(=O)N(C)C)[nH]3)n(C)c2c(F)c1Cl` [Example 39, 5-(6-chloro-7-fluoro-3-(1H-imidazol-1-yl)-5-methoxy-1-methyl-1H-indol-2-yl)-N,N-dimethyl-4H-1,2,4-triazole-3-carboxamide], the IC50 amounted to 48 nM.

As for `COCCN(C)C(=O)c1nnc(-c2c(-n3ccnc3)c3cc(OC)c(Cl)c(F)c3n2C)[nH]1` [Example 40, 5-(6-chloro-7-fluoro-3-(1H-imidazol-1-yl)-5-methoxy-1-methyl-1H-indol-2-yl)-N-(2-methoxyethyl)-N-methyl-4H-1,2,4-triazole-3-carboxamide], the half-maximal inhibitory concentration (IC50) worked out at 82 nM.

Turning to `COc1cc2c(-n3ccnc3)c(-c3nnc(C(=O)N(C)CCO)[nH]3)n(C)c2c(F)c1Cl` [Example 41, 5-(6-chloro-7-fluoro-3-(1H-imidazol-1-yl)-5-methoxy-1-methyl-1H-indol-2-yl)-N-(2-hydroxyethyl)-N-methyl-4H-1,2,4-triazole-3-carboxamide], the concentration for half-maximal inhibition (IC50) turned out to be 61 nM.

For the compound `COc1cc2c(-n3ccnc3)c(-c3nnc(C(=O)N4CCOCC4)[nH]3)n(C)c2c(F)c1Cl` [Example 42, (5-(6-chloro-7-fluoro-3-(1H-imidazol-1-yl)-5-methoxy-1-methyl-1H-indol-2-yl)-4H-1,2,4-triazol-3-yl)(morpholino)methanone], the half-inhibitory concentration (IC50) came out at 63 nM.

For `COc1cc2c(-n3ccnc3)c(-c3nnc(C(=O)N4CCC(O)C4)[nH]3)n(C)c2c(F)c1Cl` (stereo not shown) [Example 43, (5-(6-chloro-7-fluoro-3-(1H-imidazol-1-yl)-5-methoxy-1-methyl-1H-indol-2-yl)-4H-1,2,4-triazol-3-yl)(3-hydroxypyrrolidin-1-yl)methanone], the IC50 was found to be 61 nM.

As for `COc1cc2c(-n3ccnc3)c(-c3nnc(C(=O)N4CCC(O)CC4)[nH]3)n(C)c2c(F)c1Cl` [Example 44, (5-(6-chloro-7-fluoro-3-(1H-imidazol-1-yl)-5-methoxy-1-methyl-1H-indol-2-yl)-4H-1,2,4-triazol-3-yl)(4-hydroxypiperidin-1-yl)methanone], the IC50 turned out to be 58 nM.

As to `COc1cc2c(-n3ccnc3)c(-c3nnc(C(=O)N4CCCC(O)C4)[nH]3)n(C)c2c(F)c1Cl` (stereo not shown) [Example 45, (5-(6-chloro-7-fluoro-3-(1H-imidazol-1-yl)-5-methoxy-1-methyl-1H-indol-2-yl)-4H-1,2,4-triazol-3-yl)(3-hydroxypiperidin-1-yl)methanone], the IC50 worked out at 56 nM.

In the case of `COc1cc2c(-n3ccnc3)c(-c3nnc(C(=O)N4CCN(C)CC4)[nH]3)n(C)c2c(F)c1Cl` [Example 46, (5-(6-chloro-7-fluoro-3-(1H-imidazol-1-yl)-5-methoxy-1-methyl-1H-indol-2-yl)-4H-1,2,4-triazol-3-yl)(4-methylpiperazin-1-yl)methanone], the IC50 came out at 138 nM.

For `COc1cc2c(-n3ccnc3)c(-c3nnc(C(F)(F)F)[nH]3)n(C)c2c(F)c1Cl` [Example 47, 6-chloro-7-fluoro-3-(1H-imidazol-1-yl)-5-methoxy-1-methyl-2-(5-(trifluoromethyl)-4H-1,2,4-triazol-3-yl)-1H-indole], the IC50 was 121 nM.

For `COc1cc2c(-n3ccnc3)c(-c3nnc(C(F)(F)F)[nH]3)[nH]c2c(F)c1Cl` [Example 48, 6-chloro-7-fluoro-3-(1H-imidazol-1-yl)-5-methoxy-2-(5-(trifluoromethyl)-4H-1,2,4-triazol-3-yl)-1H-indole], the IC50 was 66 nM.

For the compound `COCc1nnc(-c2c(-n3ccnc3)c3cc(OC)c(Cl)c(F)c3n2C)[nH]1` [Example 49, 6-chloro-7-fluoro-3-(1H-imidazol-1-yl)-5-methoxy-2-(5-(methoxymethyl)-4H-1,2,4-triazol-3-yl)-1-methyl-1H-indole], the IC50 came out at 107 nM.

As for `COc1cc2c(-n3ccnc3)c(-c3nnc(CSC)[nH]3)n(C)c2c(F)c1Cl` [Example 50, 6-Chloro-7-fluoro-3-(1H-imidazol-1-yl)-5-methoxy-1-methyl-2-(5-((methylthio)methyl)-4H-1,2,4-triazol-3-yl)-1H-indole], the IC50 is 57 nM.

Take `COc1cc2c(-n3ccnc3)c(-c3nnc(CCO)[nH]3)n(C)c2c(F)c1Cl` [Example 51, 2-(5-(6-chloro-7-fluoro-3-(1H-imidazol-1-yl)-5-methoxy-1-methyl-1H-indol-2-yl)-4H-1,2,4-triazol-3-yl)ethan-1-ol]: the IC50 stood at 169 nM.

Take `COCCc1nnc(-c2c(-n3ccnc3)c3cc(OC)c(Cl)c(F)c3n2C)[nH]1` [Example 52, 6-chloro-7-fluoro-3-(1H-imidazol-1-yl)-5-methoxy-2-(5-(2-methoxyethyl)-4H-1,2,4-triazol-3-yl)-1-methyl-1H-indole]: the IC50 came to 206 nM.
